The target of assay [1] is T1, Nox2 (NADPH oxidase 2, flavocytochrome b558) (Sus scrofa, UniProt P52649).
T1 construct: gene CYBB; detergent-solubilized resting neutrophil membranes (1 pmol Nox2/flavocytochrome b558) plus cytosol; with cytosolic components of the Nox2 system
Kind of assay: cell-free reconstitution assay, SOD-sensitive cytochrome c reduction. The assay is classed as biochemical.

Assay [2] concerns the target T1, Nox2 (NADPH oxidase 2, flavocytochrome b558). Kind of assay: cell-free reconstitution assay, NADPH oxidation. The assay is classed as biochemical.

The source of these data is paper PMC4186383, “Evaluation of radical scavenging properties of shikonin” (Journal of Clinical Biochemistry and Nutrition, 2014).

What is called IC50 is the concentration that gives 50% inhibition.

The molecule `CC(C)=CC[C@H](O)C1=CC(=O)c2c(O)ccc(O)c2C1=O` [alkannin] registered an IC50 in assay [1] of 2200 nM.

`CC(C)=CC[C@@H](O)C1=CC(=O)c2c(O)ccc(O)c2C1=O` [shikonin] yielded an IC50 in assay [2] of 1100 nM.
